# Experimental data from patent publication US20260327191A1, “GSK3a INHIBITORS AND METHODS OF USE THEREOF” (Blueprint Medicines Corporation, priority 2023, published 2026).
# Key:
# GSK3B [1] = target: T1, GSK3B (Homo sapiens, UniProt P49841); assay: In vitro enzymatic activity assay, GSK3β; type: biochemical; parameters: Full length human GSK3α or GSK3B expressed as N-terminal GST fusion proteins; GST (N); purchased Carna Biosciences (Japan); host or cells: baculovirus host; details: 1.0 mM ATP, 1.0 μM peptide substrate, 120 min, 25° C, read-out: Enzyme GSK3β (IC50)
# T1 sequence (P49841 whole entry, the tested form may be a part): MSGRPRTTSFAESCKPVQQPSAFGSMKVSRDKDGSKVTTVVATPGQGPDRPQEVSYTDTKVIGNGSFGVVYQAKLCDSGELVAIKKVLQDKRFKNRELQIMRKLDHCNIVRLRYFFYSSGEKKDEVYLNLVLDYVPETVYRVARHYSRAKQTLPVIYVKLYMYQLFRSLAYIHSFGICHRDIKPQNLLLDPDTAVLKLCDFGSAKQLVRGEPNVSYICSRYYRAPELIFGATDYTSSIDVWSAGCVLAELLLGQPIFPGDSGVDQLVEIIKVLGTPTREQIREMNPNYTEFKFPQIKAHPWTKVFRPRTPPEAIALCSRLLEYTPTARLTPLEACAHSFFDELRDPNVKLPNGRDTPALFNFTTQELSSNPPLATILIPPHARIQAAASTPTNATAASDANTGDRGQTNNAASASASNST
# GSK3B [2] = target: T1, GSK3B; assay: NanoBRET cellular target engagement assay, Nanoluc-GSK3B in HEK293 cells; type: cell-based; parameters: expressed in transfected cells; details: NanoBRET GSK3β IC50, HEK293 cells, tracer K-8, 2 hours, 37° C
# human GSK3α = target: T2, human GSK3α (Homo sapiens, UniProt P49840); assay: In vitro enzymatic activity assay, GSK3α; type: biochemical; details: 1.0 mM ATP, 1.0 μM peptide substrate, 120 min, 25° C, read-out: Enzyme GSK3α (IC50)
# T2 construct: Full length human GSK3α or GSK3B expressed as N-terminal GST fusion proteins; GST (N); purchased Carna Biosciences (Japan); host or cells: baculovirus host
# T2 sequence (P49840 whole entry, the tested form may be a part): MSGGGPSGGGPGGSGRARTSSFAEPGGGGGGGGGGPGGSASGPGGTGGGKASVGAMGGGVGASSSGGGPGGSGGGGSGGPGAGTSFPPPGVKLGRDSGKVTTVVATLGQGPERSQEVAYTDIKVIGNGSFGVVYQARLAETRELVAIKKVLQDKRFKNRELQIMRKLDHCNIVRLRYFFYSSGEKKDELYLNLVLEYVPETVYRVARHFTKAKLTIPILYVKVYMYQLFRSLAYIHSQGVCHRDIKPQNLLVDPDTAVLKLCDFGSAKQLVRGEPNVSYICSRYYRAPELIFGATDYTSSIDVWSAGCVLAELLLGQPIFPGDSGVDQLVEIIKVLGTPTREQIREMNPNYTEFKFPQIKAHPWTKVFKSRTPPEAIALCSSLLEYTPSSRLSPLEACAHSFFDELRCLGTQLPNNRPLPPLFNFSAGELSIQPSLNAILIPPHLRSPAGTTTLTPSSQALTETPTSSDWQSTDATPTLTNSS
# GSK3A = target: T3, GSK3A (Homo sapiens, UniProt P49840); assay: NanoBRET cellular target engagement assay, Nanoluc-GSK3A in HEK293 cells; type: cell-based; details: NanoBRET GSK3α IC50, HEK293 cells, tracer K-8, 2 hours, 37° C
# T3 construct: expressed in transfected cells
# T3 sequence (P49840 whole entry): as the sequence (P49840 whole entry, the tested form may be a part) above
Compound,IC50 (GSK3B [1]),IC50 (GSK3B [2]),IC50 (human GSK3α),IC50 (GSK3A)
"COc1cc(Cl)c(-n2cnc(N)c(C(=O)Nc3cncc([C@@H](C)N)c3)c2=O)c(Cl)c1 (single isomer, unassigned) [Example 74, (R)-4-amino-N-(5-(1-aminoethyl)pyridin-3-yl)-1-(2,6-dichloro-4-methoxyphenyl)-6-oxo-1,6-dihydropyrimidine-5-carboxamide or (S)-4-amino-N-(5-(1-aminoethyl)pyridin-3-yl)-1-(2,6-dichloro-4-methoxyphenyl)-6-oxo-1,6-dihydropyrimidine-5-carboxamide]",0.465 µM,0.363 µM,0.0096 µM,0.0066 µM
"COc1cc(Cl)c(-n2cnc(N)c(C(=O)Nc3cnc(F)c([C@@H]4CCCCN4)c3)c2=O)c(Cl)c1 (single isomer, unassigned) [Example 76, (S)-4-amino-1-(2,6-dichloro-4-methoxyphenyl)-N-(6-fluoro-5-(piperidin-2-yl)pyridin-3-yl)-6-oxo-1,6-dihydropyrimidine-5-carboxamide or (R)-4-amino-1-(2,6-dichloro-4-methoxyphenyl)-N-(6-fluoro-5-(piperidin-2-yl)pyridin-3-yl)-6-oxo-1,6-dihydropyrimidine-5-carboxamide]",0.854 µM,0.591 µM,0.016 µM,0.0094 µM
"COc1cc(Cl)c(-n2cnc(N)c(C(=O)Nc3cncc(C4CCC(C)N4)c3)c2=O)c(Cl)c1 (single isomer, unassigned) [Example 78]",0.958 µM,0.703 µM,0.0114 µM,0.0077 µM
"COc1cc(Cl)c(-n2cnc(N)c(C(=O)Nc3cncc(C4CCCC(C)N4)c3)c2=O)c(Cl)c1 (single isomer, unassigned) [Example 83]",0.49 µM,0.336 µM,0.007 µM,0.0041 µM
"COc1cc(Cl)c(-n2cnc(N)c(C(=O)Nc3cncc(C(N)CC(F)F)c3)c2=O)c(Cl)c1 (single isomer, unassigned) [Example 85, (R)-4-amino-N-(5-(1-amino-3,3-difluoropropyl)pyridin-3-yl)-1-(2,6-dichloro-4-methoxyphenyl)-6-oxo-1,6-dihydropyrimidine-5-carboxamide or (S)-4-amino-N-(5-(1-amino-3,3-difluoropropyl)pyridin-3-yl)-1-(2,6-dichloro-4-methoxyphenyl)-6-oxo-1,6-dihydropyrimidine-5-carboxamide]",0.551 µM,0.374 µM,0.0094 µM,0.0042 µM
"Cc1cc(C(F)(F)F)cc(C)c1-n1cnc(N)c(C(=O)Nc2cncc(C3CCC(C)N3)c2)c1=O (single isomer, unassigned) [Example 87]",1.13 µM,0.543 µM,0.0179 µM,0.0076 µM
"CCC(N)c1cncc(NC(=O)c2c(N)ncn(-c3c(C)cc(C(F)(F)F)cc3C)c2=O)c1 (single isomer, unassigned) [Example 88, (R)-4-amino-N-(5-(1-aminopropyl)pyridin-3-yl)-1-(2,6-dimethyl-4-(trifluoromethyl)phenyl)-6-oxo-1,6-dihydropyrimidine-5-carboxamide or (S)-4-amino-N-(5-(1-aminopropyl)pyridin-3-yl)-1-(2,6-dimethyl-4-(trifluoromethyl)phenyl)-6-oxo-1,6-dihydropyrimidine-5-carboxamide]",1.02 µM,0.454 µM,0.0154 µM,0.0081 µM
"Cc1cc(C(F)(F)F)cc(C)c1-n1cnc(N)c(C(=O)Nc2cncc(C3CCCCCN3)c2)c1=O (single isomer, unassigned) [Example 89, (R)-4-amino-N-(5-(azepan-2-yl)pyridin-3-yl)-1-(2,6-dimethyl-4-(trifluoromethyl)phenyl)-6-oxo-1,6-dihydropyrimidine-5-carboxamide or (S)-4-amino-N-(5-(azepan-2-yl)pyridin-3-yl)-1-(2,6-dimethyl-4-(trifluoromethyl)phenyl)-6-oxo-1,6-dihydropyrimidine-5-carboxamide]",0.669 µM,0.485 µM,0.0102 µM,0.0064 µM
"Cc1cc(C(F)(F)F)cc(C)c1-n1cnc(N)c(C(=O)Nc2cncc(C3CCCC(C)N3)c2)c1=O (single isomer, unassigned) [Example 90]",1.07 µM,0.7 µM,0.0156 µM,0.0065 µM
"CCOc1cc(C)c(-n2cnc(N)c(C(=O)Nc3cncc(C4CCC(C)N4)c3)c2=O)c(C)c1 (single isomer, unassigned) [Example 92]",1.03 µM,0.584 µM,0.0164 µM,0.0068 µM
"CCOc1cc(C)c(-n2cnc(N)c(C(=O)Nc3cncc(C4CCC(C)N4)c3)c2=O)c(C)c1 (single isomer, unassigned) [Example 93]",1.95 µM,0.914 µM,0.0317 µM,0.0093 µM
"CCOc1cc(C)c(-n2cnc(N)c(C(=O)Nc3cncc(C4CCCCCN4)c3)c2=O)c(C)c1 (single isomer, unassigned) [Example 95, (R)-4-amino-N-(5-(azepan-2-yl)pyridin-3-yl)-1-(4-ethoxy-2,6-dimethylphenyl)-6-oxo-1,6-dihydropyrimidine-5-carboxamide or (S)-4-amino-N-(5-(azepan-2-yl)pyridin-3-yl)-1-(4-ethoxy-2,6-dimethylphenyl)-6-oxo-1,6-dihydropyrimidine-5-carboxamide]",0.465 µM,0.29 µM,0.0098 µM,0.0043 µM
"CCOc1cc(C)c(-n2cnc(N)c(C(=O)Nc3cncc(C4CCCC(C)N4)c3)c2=O)c(C)c1 (single isomer, unassigned) [Example 96]",0.706 µM,0.64 µM,0.0164 µM,0.0067 µM

# The next compounds have a lower IC50 (GSK3B [1]) than those just listed; values first:
IC50 (GSK3B [1]),IC50 (GSK3B [2]),IC50 (human GSK3α),IC50 (GSK3A),Compound
0.317 µM,0.17 µM,0.0043 µM,0.0024 µM,"COc1cc(Cl)c(-n2cnc(N)c(C(=O)Nc3cncc(C4CCC(C)N4)c3)c2=O)c(Cl)c1 (single isomer, unassigned) [Example 79]"
0.314 µM,0.117 µM,0.0059 µM,0.0023 µM,"COc1cc(Cl)c(-n2cnc(N)c(C(=O)Nc3cncc([C@H]4CCC[C@H](C)N4)c3)c2=O)c(Cl)c1 (single isomer, unassigned) [Example 81]"
0.27 µM,0.271 µM,0.0025 µM,0.0029 µM,"CN[C@@H](COC)c1cncc(NC(=O)c2c(N)ncn(-c3c(Cl)cc(OC)cc3Cl)c2=O)c1 (single isomer, unassigned) [Example 80, (R)-4-amino-1-(2,6-dichloro-4-methoxyphenyl)-N-(5-(2-methoxy-1-(methylamino)ethyl)pyridin-3-yl)-6-oxo-1,6-dihydropyrimidine-5-carboxamide or (S)-4-amino-1-(2,6-dichloro-4-methoxyphenyl)-N-(5-(2-methoxy-1-(methylamino)ethyl)pyridin-3-yl)-6-oxo-1,6-dihydropyrimidine-5-carboxamide]"
0.254 µM,0.179 µM,0.0038 µM,0.0025 µM,"COc1cc(Cl)c(-n2cnc(N)c(C(=O)Nc3cncc([C@H]4CCC[C@H](C)N4)c3)c2=O)c(Cl)c1 (single isomer, unassigned) [Example 84]"
0.248 µM,0.269 µM,0.0045 µM,0.004 µM,"COc1cc(Cl)c(-n2cnc(N)c(C(=O)Nc3cncc(C(N)CC(F)F)c3)c2=O)c(Cl)c1 (single isomer, unassigned) [Example 82, (R)-4-amino-N-(5-(1-amino-3,3-difluoropropyl)pyridin-3-yl)-1-(2,6-dichloro-4-methoxyphenyl)-6-oxo-1,6-dihydropyrimidine-5-carboxamide or (S)-4-amino-N-(5-(1-amino-3,3-difluoropropyl)pyridin-3-yl)-1-(2,6-dichloro-4-methoxyphenyl)-6-oxo-1,6-dihydropyrimidine-5-carboxamide]"
0.145 µM,0.201 µM,0.0029 µM,0.0024 µM,"COCc1cc(Cl)c(-n2cnc(N)c(C(=O)Nc3cncc([C@H](N)CC(F)F)c3)c2=O)c(Cl)c1 (single isomer, unassigned) [Example 70, (R)-4-amino-N-(5-(1-amino-3,3-difluoropropyl)pyridin-3-yl)-1-(2,6-dichloro-4-(methoxymethyl)phenyl)-6-oxo-1,6-dihydropyrimidine-5-carboxamide or (S)-4-amino-N-(5-(1-amino-3,3-difluoropropyl)pyridin-3-yl)-1-(2,6-dichloro-4-(methoxymethyl)phenyl)-6-oxo-1,6-dihydropyrimidine-5-carboxamide]"
0.106 µM,0.186 µM,0.0024 µM,0.0036 µM,"COc1cc(Cl)c(-n2cnc(N)c(C(=O)Nc3cncc([C@@H]4COCCCN4)c3)c2=O)c(Cl)c1 (single isomer, unassigned) [Example 75, (R)-N-(5-(1,4-oxazepan-3-yl)pyridin-3-yl)-4-amino-1-(2,6-dichloro-4-methoxyphenyl)-6-oxo-1,6-dihydropyrimidine-5-carboxamide or (S)-N-(5-(1,4-oxazepan-3-yl)pyridin-3-yl)-4-amino-1-(2,6-dichloro-4-methoxyphenyl)-6-oxo-1,6-dihydropyrimidine-5-carboxamide]"
